Test results: patent publication US5202315A, “Cephalosporin compounds” (Lucky, Ltd., priority 1989, dated 1993)
Values after ≈ are worked out from the molar mass of the structure shown. Read-outs that look alike come from different tables or passages of the source.

Legend:
[1] = tested on: Acinetobacter calcoaceticus ATCC 15473; assay: Antibacterial activity, MIC; type: cell-based; details: ATCC15473, ATCC 15473, agar two-fold dilution, 37° C., 20 hours, read-out: MIC
In short: (§1)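 Plates of Mueller-Hinton agar containing two-fold serial dilutions of compound were inoculated with 2 μl of test strain suspension (10^7 CFU per ml) and incubated for 20 hours at 37 °C.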

[2] = tested on: Bacillus cereus ATCC 11778; assay: Antibacterial activity, MIC; type: cell-based; details: ATCC11778, ATCC 11778, agar two-fold dilution, 37° C., 20 hours, read-out: MIC
In short: as §1

[3] = tested on: Bacillus megaterium ATCC 9885; assay: Antibacterial activity, MIC; type: cell-based; details: Priestia megaterium, ATCC9885; ATCC 9885; agar two-fold dilution, 37° C., 20 hours; read-out: MIC
In short: as §1

[4] = tested on: Enterobacter aerogenes ATCC 29751; assay: Antibacterial activity, MIC; type: cell-based; details: Klebsiella aerogenes, ATCC29751; ATCC 29751; agar two-fold dilution, 37° C., 20 hours; read-out: MIC
In short: as §1

[5] = tested on: Escherichia coli ATCC 25922; assay: Antibacterial activity, MIC; type: cell-based; details: ATCC25922, agar two-fold dilution, 37° C., 20 hours
In short: as §1

[6] = tested on: Klebsiella pneumoniae ATCC 10031; assay: Antibacterial activity, MIC; type: cell-based; details: ATCC10031, ATCC 10031, agar two-fold dilution, 37° C., 20 hours, read-out: MIC
In short: as §1

[7] = tested on: Micrococcus luteus ATCC 9341; assay: Antibacterial activity, MIC; type: cell-based; details: ATCC9341, ATCC 9341, agar two-fold dilution, 37° C., 20 hours, read-out: MIC
In short: as §1

[8] = tested on: Morganella morganii ATCC 8076h; assay: Antibacterial activity, MIC; type: cell-based; details: ATCC8076H, agar two-fold dilution, 37° C., 20 hours
In short: as §1

[9] = tested on: Proteus mirabilis ATCC 25933; assay: Antibacterial activity, MIC; type: cell-based; details: ATCC25933, ATCC 25933, agar two-fold dilution, 37° C., 20 hours, read-out: MIC
In short: as §1

[10] = tested on: Proteus vulgaris ATCC 6059; assay: Antibacterial activity, MIC; type: cell-based; details: ATCC6059, ATCC 6059, agar two-fold dilution, 37° C., 20 hours, read-out: MIC
In short: as §1

[11] = tested on: Providencia rettgeri ATCC 9250; assay: Antibacterial activity, MIC; type: cell-based; details: ATCC9250, agar two-fold dilution, 37° C., 20 hours
In short: as §1

[12] = tested on: Pseudomonas aeruginosa ATCC 10145; assay: Antibacterial activity, MIC; type: cell-based; details: ATCC10145, ATCC 10145, agar two-fold dilution, 37° C., 20 hours, read-out: MIC
In short: as §1

[13] = tested on: Pseudomonas aeruginosa ATCC 25619; assay: Antibacterial activity, MIC; type: cell-based; details: ATCC25619, ATCC 25619, agar two-fold dilution, 37° C., 20 hours, read-out: MIC
In short: as §1

[14] = tested on: Pseudomonas aeruginosa ATCC 27853; assay: Antibacterial activity, MIC; type: cell-based; details: ATCC27853, ATCC 27853, agar two-fold dilution, 37° C., 20 hours, read-out: MIC
In short: as §1

[15] = tested on: Salmonella typhimurium ATCC 14028; assay: Antibacterial activity, MIC; type: cell-based; details: Salmonella enterica; ATCC 14028; agar two-fold dilution, 37° C., 20 hours; read-out: MIC
In short: as §1

[16] = tested on: Serratia marcescens ATCC 27117; assay: Antibacterial activity, MIC; type: cell-based; details: ATCC27117, ATCC 27117, agar two-fold dilution, 37° C., 20 hours, read-out: MIC
In short: as §1

[17] = tested on: Shigella flexneri ATCC 11836; assay: Antibacterial activity, MIC; type: cell-based; details: ATCC11836, agar two-fold dilution, 37° C., 20 hours
In short: as §1

[18] = tested on: Shigella sonnei ATCC 11060; assay: Antibacterial activity, MIC; type: cell-based; details: ATCC11060, ATCC 11060, agar two-fold dilution, 37° C., 20 hours, read-out: MIC
In short: as §1

[19] = tested on: Staphylococcus aureus ATCC 10537; assay: Antibacterial activity, MIC; type: cell-based; details: ATCC10537, ATCC 10537, agar two-fold dilution, 37° C., 20 hours, read-out: MIC
In short: as §1

[20] = tested on: Staphylococcus aureus ATCC 6538p; assay: Antibacterial activity, MIC; type: cell-based; details: ATCC6538P, ATCC 6538p, agar two-fold dilution, 37° C., 20 hours, read-out: MIC
In short: as §1

[21] = tested on: Staphylococcus epidermidis ATCC 12228; assay: Antibacterial activity, MIC; type: cell-based; details: ATCC12228, ATCC 12228, agar two-fold dilution, 37° C., 20 hours, read-out: MIC
In short: as §1

[22] = tested on: Klebsiella pneumoniae; assay: Antibacterial activity against clinically isolated strains, MIC; type: cell-based; details: 10 clinical isolates, broth microdilution test; for MIC90: read-out: MIC 90%
[23] = tested on: Staphylococcus aureus methicillin susceptible; assay: as above; type: cell-based; details: methicillin susceptible, 42 clinical isolates, broth microdilution test; for MIC90: read-out: MIC 90%
[24] = tested on: Staphylococcus aureus methicillin resistant; assay: as above; type: cell-based; details: methicillin resistant, 7 clinical isolates, broth microdilution test; for MIC90: read-out: MIC 90%
[25] = tested on: Pseudomonas aeruginosa; assay: as above; type: cell-based; details: 54 clinical isolates, broth microdilution test; for MIC90: read-out: MIC 90%
[26] = In-vivo absorbency (plasma concentrations & pharmacokinetic parameters); parameters: species or system SD rat (male); details: plasma, SD male rat, iv 20 mg/kg; for concentration at 1 h: 60 min; for concentration at 1 h / concentration at 2 h: read-out: Plasma Conc.; for concentration at 2 h: 120 min; for AUC / half-life: two compartment model; for half-life: rat, iv, 20 mg/kg
Description: The blood samples from the femoral vein of the rats were taken every hour after administration, and analyzed by bio-assay(agar well method).
Tested animal: SD male Rat (220~340 g)

[27] = as above; parameters: species or system SD rat (male); details: plasma, SD male rat, iv 20 mg/kg, read-out: Plasma Conc.

Row | Compound | MIC [1] [µg/mL] | MIC [2] [µg/mL] | MIC [3] [µg/mL] | MIC [4] [µg/mL] | MIC [5] [µg/mL] | MIC [6] [µg/mL] | MIC [7] [µg/mL] | MIC [8] [µg/mL] | MIC [9] [µg/mL] | MIC [10] [µg/mL] | MIC [11] [µg/mL] | MIC [12] [µg/mL] | MIC [13] [µg/mL] | MIC [14] [µg/mL] | MIC [15] [µg/mL] | MIC [16] [µg/mL] | MIC [17] [µg/mL] | MIC [18] [µg/mL] | MIC [19] [µg/mL] | MIC [20] [µg/mL] | further results
1 | C[n+]1c(N)cc(N)nc1SCC1=C(C(=O)[O-])N2C(=O)C(NC(=O)/C(=N\OC(C)(C)C(=O)O)c3csc(N)n3)[C@H]2SC1 (some centres unmarked) [Compound I-1, 7-[(Z)-2-(2-aminothiazol-4-yl)-2-(2-carboxyprop-2-oxyimino)acetamido]-3-(4,6-diamino-1-methylpyrimidinium-2-yl) thiomethyl-3-cephem-4-carboxylate] | 2 (≈ 3.21 µM) | 64 (≈ 103 µM) | 0.25 (≈ 0.401 µM) | 1 (≈ 1.6 µM) | 0.063 (≈ 0.101 µM) | 0.063 (≈ 0.101 µM) | 0.25 (≈ 0.401 µM) | ≤ 0.008 | 0.031 (≈ 0.0497 µM) | 0.031 (≈ 0.0497 µM) | ≤ 0.008 | 2 (≈ 3.21 µM) | 1 (≈ 1.6 µM) | 1 (≈ 1.6 µM) | 0.13 (≈ 0.208 µM) | 0.063 (≈ 0.101 µM) | 0.031 (≈ 0.0497 µM) | 0.031 (≈ 0.0497 µM) | 1 (≈ 1.6 µM) | 2 (≈ 3.21 µM) | MIC [21]: 1 µg/mL (≈ 1.6 µM); MIC50 [22]: 0.063 µg/mL (≈ 0.101 µM); MIC90 [22]: 0.13 µg/mL (≈ 0.208 µM); MIC50 [23]: 2 µg/mL (≈ 3.21 µM); MIC90 [23]: 2 µg/mL (≈ 3.21 µM); MIC50 [24]: > 128 µg/mL; MIC90 [24]: > 128 µg/mL; MIC50 [25]: 1 µg/mL (≈ 1.6 µM); MIC90 [25]: 4 µg/mL (≈ 6.41 µM); concentration at 1 h [26]: 7700 ng/mL; concentration at 2 h [26]: 1800 ng/mL; AUC [26]: 35300 ng·h/mL; half-life ([26]; read-out: T1/2 (α)): 3 min; half-life ([26]; read-out: T1/2 (β)): 26 min; concentration at 1 min [27]: 152000 ng/mL; concentration at 2.5 min [27]: 101000 ng/mL; concentration at 5 min [27]: 65000 ng/mL; concentration at 10 min [27]: 45000 ng/mL; concentration at 20 min [27]: 29000 ng/mL; concentration at 40 min [27]: 14000 ng/mL
2 | CC[n+]1c(N)cc(N)nc1SCC1=C(C(=O)[O-])N2C(=O)C(NC(=O)/C(=N\OC(C)(C)C(=O)O)c3csc(N)n3)C2SC1 (centres unmarked) [Compound I-2] | 4 (≈ 6.27 µM) | 64 (≈ 100 µM) | 0.5 (≈ 0.784 µM) | 2 (≈ 3.14 µM) | 0.063 (≈ 0.0988 µM) | 0.063 (≈ 0.0988 µM) | 0.25 (≈ 0.392 µM) | ≤ 0.008 | 0.031 (≈ 0.0486 µM) | 0.031 (≈ 0.0486 µM) | ≤ 0.008 | 2 (≈ 3.14 µM) | 1 (≈ 1.57 µM) | 1 (≈ 1.57 µM) | 0.25 (≈ 0.392 µM) | 0.13 (≈ 0.204 µM) | 0.031 (≈ 0.0486 µM) | 0.063 (≈ 0.0988 µM) | 2 (≈ 3.14 µM) | 2 (≈ 3.14 µM) | MIC [21]: 1 µg/mL (≈ 1.57 µM); MIC50 [22]: 0.13 µg/mL (≈ 0.204 µM); MIC90 [22]: 0.13 µg/mL (≈ 0.204 µM); MIC50 [23]: 2 µg/mL (≈ 3.14 µM); MIC90 [23]: 2 µg/mL (≈ 3.14 µM); MIC50 [24]: > 128 µg/mL; MIC90 [24]: > 128 µg/mL; MIC50 [25]: 2 µg/mL (≈ 3.14 µM); MIC90 [25]: 4 µg/mL (≈ 6.27 µM); concentration at 1 h [26]: 2600 ng/mL; concentration at 2 h [26]: 400 ng/mL; AUC [26]: 11400 ng·h/mL; half-life ([26]; read-out: T1/2 (α)): 2 min; half-life ([26]; read-out: T1/2 (β)): 23 min; concentration at 1 min [27]: 55000 ng/mL; concentration at 2.5 min [27]: 33000 ng/mL; concentration at 5 min [27]: 22000 ng/mL; concentration at 10 min [27]: 14000 ng/mL; concentration at 20 min [27]: 7300 ng/mL; concentration at 40 min [27]: 4500 ng/mL
